The values that follow are results of earlier work, collected in patent US7781400B2, “Pharmaceutical compositions comprising dextran with a molecular weight of 1.0-100 KDA and processes for their preparation” (BOWS Pharmaceuticals AG, priority 2006, dated 2010).

The conditions of this data set: in vivo.

For the substance polyglycolide, the “adverse tissue response rates” value is listed as “up to 47%”.
